Drawing on US4921850A, “3-propenylcephem derivative” (Eisai Co., Ltd., priority 1986, dated 1990), this text covers MIC for five compounds.

Values after ≈ are worked out from the molar mass of the structure shown.

One experiment concerns Pseud. aeruginosa EP-01. Nature of the experiment: Anti-bacterial activity (MIC), agar dilution. Type of experiment: cell-based. The settings on record: Pseud. aeruginosa EP-01; agar dilution, about 10^6 CFU/ml, 18 hours, 37° C. An outline of the steps: (§1)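 MIC values (μg/ml) come from agar dilution: strains grown overnight in Mueller-Hinton broth, diluted to roughly 10^6 CFU/ml, spotted on Mueller-Hinton agar containing twofold serial antibiotic dilutions, and read after 18 hours at 37° C.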
(In general: In agar dilution, organisms are placed on agar that contains the substance at set levels.)
The term MIC denotes the lowest concentration that inhibits growth of the organism. As to `C[N+]1(CC=CC2=C(C(=O)[O-])N3C(=O)C(NC(=O)C(=NOCF)c4nsc(N)n4)C3SC2)CC(O)CC1CO` (stereo not drawn) [Example 89-2], the MIC came to 0.8 µg/mL (≈ 1.4 µM).

The same experiment, now with this note: Pseudomonas aeruginosa, EP01, 18 h, Pseud. aeruginosa EP-01; agar dilution, about 10^6 CFU/ml, 18 hours, 37° C.; read-out: MIC.
For `C[C@H](CO)[N+](C)(C)C/C=C/C1=C(C(=O)[O-])N2C(=O)[C@@H](NC(=O)/C(=N\OCF)c3nsc(N)n3)[C@H]2SC1` [Example 68], the MIC stood at 0.8 µg/mL (≈ 1.47 µM).
As for `CC(C)(CO)[N+](C)(C)C/C=C/C1=C(C(=O)[O-])N2C(=O)[C@@H](NC(=O)/C(=N\OCF)c3nsc(N)n3)[C@H]2SC1` [Example 69], the MIC was determined as 0.8 µg/mL (≈ 1.43 µM).
For `C[N+](C)(C/C=C/C1=C(C(=O)[O-])N2C(=O)[C@@H](NC(=O)/C(=N\OCF)c3nsc(N)n3)[C@H]2SC1)C(CO)(CO)CO` [Example 70], the MIC turned out to be 0.8 µg/mL (≈ 1.36 µM).
`C[N+](C)(C/C=C/C1=C(C(=O)[O-])N2C(=O)[C@@H](NC(=O)/C(=N\OCF)c3nsc(N)n3)[C@H]2SC1)CC(=O)NO` [Example 72]: the MIC was 0.8 µg/mL (≈ 1.43 µM).

A further experiment concerns Morganella morganii EP-14. The experiment in a line: Anti-bacterial activity (MIC), agar dilution. In kind it is cell-based. The settings on record: Morganella morganii, EP14, 18 h, about 10^6 CFU/ml, 37° C., read-out: MIC. The method in brief:
as §1
With `C[C@H](CO)[N+](C)(C)C/C=C/C1=C(C(=O)[O-])N2C(=O)[C@@H](NC(=O)/C(=N\OCF)c3nsc(N)n3)[C@H]2SC1` [Example 68], the MIC is at most 0.025 µg/mL.
With `CC(C)(CO)[N+](C)(C)C/C=C/C1=C(C(=O)[O-])N2C(=O)[C@@H](NC(=O)/C(=N\OCF)c3nsc(N)n3)[C@H]2SC1` [Example 69], the MIC is at most 0.025 µg/mL.
As for `C[N+](C)(C/C=C/C1=C(C(=O)[O-])N2C(=O)[C@@H](NC(=O)/C(=N\OCF)c3nsc(N)n3)[C@H]2SC1)C(CO)(CO)CO` [Example 70], the MIC is at most 0.025 µg/mL.
`C[N+](C)(C/C=C/C1=C(C(=O)[O-])N2C(=O)[C@@H](NC(=O)/C(=N\OCF)c3nsc(N)n3)[C@H]2SC1)CC(=O)NO` [Example 72]: the MIC is at most 0.025 µg/mL.

The experiment is the same for the next values; noted with them: about 10^6 CFU/ml, 18 hours, 37° C.
Compound `C[N+]1(CC=CC2=C(C(=O)[O-])N3C(=O)C(NC(=O)C(=NOCF)c4nsc(N)n4)C3SC2)CC(O)CC1CO` (stereo not drawn) [Example 89-2] came in with an MIC of at most 0.025 µg/mL.

In another experiment the test system is Escher. coli NIHJ. The experiment in a line: Anti-bacterial activity (MIC), agar dilution. Type of experiment: cell-based. The settings on record: Escher. coli NIHJ; agar dilution, about 10^6 CFU/ml, 18 hours, 37° C. The method in brief:
as §1
`C[N+]1(CC=CC2=C(C(=O)[O-])N3C(=O)C(NC(=O)C(=NOCF)c4nsc(N)n4)C3SC2)CC(O)CC1CO` (stereo not drawn) [Example 89-2] came in with an MIC of at most 0.025 µg/mL.

Staying with this experiment, now noted: Escherichia coli, 18 h, Escher. coli NIHJ; agar dilution, about 10^6 CFU/ml, 18 hours, 37° C.; read-out: MIC.
Take `C[C@H](CO)[N+](C)(C)C/C=C/C1=C(C(=O)[O-])N2C(=O)[C@@H](NC(=O)/C(=N\OCF)c3nsc(N)n3)[C@H]2SC1` [Example 68]: the MIC was at most 0.025 µg/mL.
Turning to `CC(C)(CO)[N+](C)(C)C/C=C/C1=C(C(=O)[O-])N2C(=O)[C@@H](NC(=O)/C(=N\OCF)c3nsc(N)n3)[C@H]2SC1` [Example 69], the MIC was at most 0.025 µg/mL.
The same measure, in the same setting: in the case of `C[N+](C)(C/C=C/C1=C(C(=O)[O-])N2C(=O)[C@@H](NC(=O)/C(=N\OCF)c3nsc(N)n3)[C@H]2SC1)C(CO)(CO)CO` [Example 70] it was at most 0.025 µg/mL.
Regarding `C[N+](C)(C/C=C/C1=C(C(=O)[O-])N2C(=O)[C@@H](NC(=O)/C(=N\OCF)c3nsc(N)n3)[C@H]2SC1)CC(=O)NO` [Example 72], the MIC is at most 0.025 µg/mL.

Another experiment relates to Staph. aureus 209-P. Nature of the experiment: Anti-bacterial activity (MIC), agar dilution. In kind it is cell-based. The settings on record: Staph. aureus 209-P; agar dilution, about 10^6 CFU/ml, 18 hours, 37° C. The method in brief: as §1
In turn, `C[N+]1(CC=CC2=C(C(=O)[O-])N3C(=O)C(NC(=O)C(=NOCF)c4nsc(N)n4)C3SC2)CC(O)CC1CO` (stereo not drawn) [Example 89-2] returned an MIC of 0.2 µg/mL (≈ 0.35 µM).

The experiment is the same for the next values; noted with them: Staphylococcus aureus, 209P, 18 h, Staph. aureus 209-P; agar dilution, about 10^6 CFU/ml, 18 hours, 37° C.; read-out: MIC.
For `C[C@H](CO)[N+](C)(C)C/C=C/C1=C(C(=O)[O-])N2C(=O)[C@@H](NC(=O)/C(=N\OCF)c3nsc(N)n3)[C@H]2SC1` [Example 68], the minimum inhibitory concentration (MIC) was determined as 0.2 µg/mL (≈ 0.368 µM).
For the compound `CC(C)(CO)[N+](C)(C)C/C=C/C1=C(C(=O)[O-])N2C(=O)[C@@H](NC(=O)/C(=N\OCF)c3nsc(N)n3)[C@H]2SC1` [Example 69], the MIC came out at 0.2 µg/mL (≈ 0.359 µM).
Consider `C[N+](C)(C/C=C/C1=C(C(=O)[O-])N2C(=O)[C@@H](NC(=O)/C(=N\OCF)c3nsc(N)n3)[C@H]2SC1)C(CO)(CO)CO` [Example 70], for which the MIC came to 0.1 µg/mL (≈ 0.17 µM).
In the case of `C[N+](C)(C/C=C/C1=C(C(=O)[O-])N2C(=O)[C@@H](NC(=O)/C(=N\OCF)c3nsc(N)n3)[C@H]2SC1)CC(=O)NO` [Example 72], the MIC is 0.4 µg/mL (≈ 0.716 µM).

A further experiment concerns Kleb. pneumoniae EK-6. The experiment in a line: Anti-bacterial activity (MIC), agar dilution. Type of experiment: cell-based. The settings on record: Kleb. pneumoniae EK-6; agar dilution, about 10^6 CFU/ml, 18 hours, 37° C. An outline of the steps: as §1
`C[N+]1(CC=CC2=C(C(=O)[O-])N3C(=O)C(NC(=O)C(=NOCF)c4nsc(N)n4)C3SC2)CC(O)CC1CO` (stereo not drawn) [Example 89-2] yielded an MIC of at most 0.025 µg/mL.

The same experiment, now with this note: Klebsiella pneumoniae, EK6, 18 h, Kleb. pneumoniae EK-6; agar dilution, about 10^6 CFU/ml, 18 hours, 37° C.; read-out: MIC.
As for `C[C@H](CO)[N+](C)(C)C/C=C/C1=C(C(=O)[O-])N2C(=O)[C@@H](NC(=O)/C(=N\OCF)c3nsc(N)n3)[C@H]2SC1` [Example 68], the MIC was at most 0.025 µg/mL.
Take `CC(C)(CO)[N+](C)(C)C/C=C/C1=C(C(=O)[O-])N2C(=O)[C@@H](NC(=O)/C(=N\OCF)c3nsc(N)n3)[C@H]2SC1` [Example 69]: the MIC was at most 0.025 µg/mL.
For the compound `C[N+](C)(C/C=C/C1=C(C(=O)[O-])N2C(=O)[C@@H](NC(=O)/C(=N\OCF)c3nsc(N)n3)[C@H]2SC1)C(CO)(CO)CO` [Example 70], the MIC is at most 0.025 µg/mL.
With `C[N+](C)(C/C=C/C1=C(C(=O)[O-])N2C(=O)[C@@H](NC(=O)/C(=N\OCF)c3nsc(N)n3)[C@H]2SC1)CC(=O)NO` [Example 72], the MIC is at most 0.025 µg/mL.

A further experiment deals with Ser. marcescens ES-75. The experiment in a line: Anti-bacterial activity (MIC), agar dilution. The settings on record: Ser. marcescens ES-75; agar dilution, about 10^6 CFU/ml, 18 hours, 37° C. Type of experiment: cell-based. The method in brief:
as §1
As to `C[N+]1(CC=CC2=C(C(=O)[O-])N3C(=O)C(NC(=O)C(=NOCF)c4nsc(N)n4)C3SC2)CC(O)CC1CO` (stereo not drawn) [Example 89-2], the MIC was at most 0.025 µg/mL.

Still in this experiment, the particulars now being: Serratia marcescens, ES75, 18 h, Ser. marcescens ES-75; agar dilution, about 10^6 CFU/ml, 18 hours, 37° C.; read-out: MIC.
In the case of `C[C@H](CO)[N+](C)(C)C/C=C/C1=C(C(=O)[O-])N2C(=O)[C@@H](NC(=O)/C(=N\OCF)c3nsc(N)n3)[C@H]2SC1` [Example 68], the MIC is at most 0.025 µg/mL.
Regarding `CC(C)(CO)[N+](C)(C)C/C=C/C1=C(C(=O)[O-])N2C(=O)[C@@H](NC(=O)/C(=N\OCF)c3nsc(N)n3)[C@H]2SC1` [Example 69], the MIC came to 0.05 µg/mL (≈ 0.0897 µM).
With `C[N+](C)(C/C=C/C1=C(C(=O)[O-])N2C(=O)[C@@H](NC(=O)/C(=N\OCF)c3nsc(N)n3)[C@H]2SC1)C(CO)(CO)CO` [Example 70], the MIC worked out at 0.1 µg/mL (≈ 0.17 µM).
`C[N+](C)(C/C=C/C1=C(C(=O)[O-])N2C(=O)[C@@H](NC(=O)/C(=N\OCF)c3nsc(N)n3)[C@H]2SC1)CC(=O)NO` [Example 72]: the MIC was at most 0.025 µg/mL.
